Experimental data taken from PMC5574609, “Potential role of an antimicrobial peptide, KLK in inhibiting lipopolysaccharide-induced macrophage inflammation” (PLoS ONE, 2017).
Bridge positions count the residues as written; N and C are the ends. Ends that are not written are not given here. Peptide text beside a SMILES is read from it.

Legend:
Type in all cases: cell-based, murine
[1] = system: NO production in LPS-stimulated RAW 264.7 cells; test: LPS-stimulated NO production (nitrite, Griess); conditions: peptide 1 µg/mL, LPS 1 µg/mL, 48 h, mean ± SD
Method: (§1) RAW 264.7 cells at 1×10^5 cells/well were stimulated with 1 μg/mL LPS (Escherichia coli 0111:B4; Sigma, St. Louis, MO, USA) in the presence or absence of various concentrations of the test peptide and then incubated at 37°C in 5% CO2 for 48 h. Indomethacin (10 μM; Sigma, St. Louis, MO, USA) was included as a positive control. Where appropriate, cells were pre-incubated with the test peptide for 1 h, and washed three times with sterile PBS before incubation with LPS (1 μg/mL; Sigma). Culture supernatant was collected and the nitrite (a stable breakdown product of NO) accumulated in culture supernatant was then determined by the Griess reagent system (Promega, Madison, USA). Briefly, 50 μL of culture supernatant was mixed with an equal volume of 1% sulfanilamide in 5% phosphoric acid. After incubation for 10 min at room temperature, 50 μL of 0.1% N-1-napthylethylenediamine dihydrochloride was added and incubated for another 10 min at room temperature. The absorbance was measured at 540 nm using a microplate reader (Rayto RT-2100C, China) and nitrite concentrations were determined using a sodium nitrite standard curve. The PGE2 levels in culture medium were quantified by enzyme-immunoassay (R&D Systems, Minneapolis, MN, USA) according to the manufacturer’s instructions.

[2] = system: IL-1β production in LPS-stimulated RAW 264.7 cells; test: IL-1β production, sandwich ELISA; conditions: LPS 1 µg/mL, 72 h, mean ± SD
Method: (§2) The pro-inflammatory cytokines (IL-1β and TNF-α)were determined by sandwich enzyme-linked immunosorbent assay (ELISA). RAW 264.7 cells (1×10^5 cells/well) were seeded into a 96-well microtiter plate (Nunc™) and stimulated with LPS (1 μg/mL; Sigma) in the presence or absence of each peptide at different concentrations. After 72 h of incubation, the culture supernatant was collected and cytokine concentrations measured using ELISA MAX™ Deluxe Set (BioLegend, San Diego, CA, USA), following the manufacturer’s protocol.

[3] = system: TNF-α production in LPS-stimulated RAW 264.7 cells; test: TNF-α production, sandwich ELISA; conditions: LPS 1 µg/mL, 72 h, mean ± SD
Method: as §2

[4] = system: PGE2 production in LPS-stimulated RAW 264.7 cells; test: PGE2 production, enzyme-immunoassay; conditions: LPS 1 µg/mL + indomethacin 10 µM, 48 h
Method: as §1, with “Sigma,” for “RAW 264.7 cells at 1×10^5 cells/well were stimulated with 1 μg/mL LPS (Escherichia coli 0111:B4; Sigma,”, “Where appropriate, cells were pre-incubated with the test peptide for 1 h, and washed three times with sterile PBS before incubation with LPS (1 μg/mL;” left out, “After incubation for 10 min at room temperature, 50 μL of 0.1% N-1-napthylethylenediamine dihydrochloride was added and incubated for another 10 min at room temperature.” left out

[5] = system: NO production in LPS-stimulated RAW 264.7 cells; test: Pre-treatment with or without wash, then LPS; NO by Griess; conditions: 10 µg/mL pre-treatment 1 h, washed, LPS 1 µg/mL 48 h
Method: as §1, with “Briefly, 50 μL of culture supernatant was mixed with an equal volume of 1% sulfanilamide in 5% phosphoric acid. After incubation for 10 min at room temperature, 50 μL of 0.1% N-1-napthylethylenediamine dihydrochloride was added and incubated for another 10 min at room temperature.” left out
To investigate whether the ability of KLK peptide to inhibit LPS-induced signaling was due to KLK-LPS binding, experiments were performed in which RAW 264.7 cells were pre-treated with the KLK peptide for 1 h and then thoroughly washed to remove exogenous peptide. The cells were subsequently stimulated with LPS and pro-inflammatory mediator (NO) measured in cell-free supernatant after 48 hr. […]

For `CC(C)C[C@@H]1NC(=O)[C@H](CCCCN)NC(=O)[C@H](CC(C)C)NC(=O)[C@H](CC(C)C)NC(=O)[C@H](CC(C)C)NC(=O)[C@H](CC(C)C)NC(=O)[C@H](CC(C)C)NC(=O)[C@H](CCCCN)NC(=O)[C@H](CC(C)C)NC(=O)[C@H](CCCCN)NC(=O)[C@H](CCCCN)NC1=O` [CYCKLK] (HELM PEPTIDE1{K.L.K.L.L.L.L.L.K.L.K}$PEPTIDE1,PEPTIDE1,1:R1-11:R2$$$V2.0), the “inhibitory rate of LPS-stimulated NO production” value [1] was 79.26 ± 3.17%, the “IC50 for IL-1β production” value [2] was 8.83 ± 1.31 µg/mL and the “IC50 for TNF-α production” value [3] was 0.91 ± 0.07 µg/mL.
With `COc1ccc2c(c1)c(CC(=O)O)c(C)n2C(=O)c1ccc(Cl)cc1` [Indomethacin] the “PGE2” value ([4]; exp. 1) was 783.5 pg/mL, the “PGE2” value ([4]; exp. 2) was 716 pg/mL and the “PGE2” value ([4]; mean of n = 2) was 749.7 pg/mL.
“CKLKLLLLLKLKC (disulfide 1-13 (inferred)) [SSKLK, KLK with cysteine residues added to both N and C-terminal ends]” was tested, and the “inhibitory rate of LPS-stimulated NO production” value [1] was 70.77 ± 1.55% and the “IC50 for TNF-α production” value [3] was 1.79 ± 0.01 µg/mL.
For polymyxin B [PMB], the “effect of removing exogenous compound by washing before LPS on NO inhibition” value [5] was “significantly affected”.
